Like-named read-outs stand apart in the source and are kept apart here.
Assays:
[1] = target: T1, human α1G subunits (T-type channels) (Homo sapiens, UniProt O43497); test: Block of α1G T-type channels, patch clamp in HEK cell lines (Example 8); assay type: cell-based
T1 construct: expressed in transfected cells
Method: Standard patch-clamp techniques were employed to identify blockers of T-type currents. Briefly, previously described HEK cell lines stably expressing human α1G subunits were used for all the recordings (passage #: 4-20, 37° C., 5% CO2). To obtain T-type currents, plastic dishes containing semi-confluent cells were positioned on the stage of a ZEISS AXIOVERT S100 microscope after replacing the culture medium with external solution (see below). Whole-cell patches were obtained using pipettes (borosilicate glass with filament, O.D.: 1.5 mm, I.D.: 0.86 mm, 10 cm length), fabricated on a SUTTER P-97 puller with resistance values of ˜5 MΩ (see below for internal medium).
In the non-inactivating protocol, the holding potential is set at −110 mV and with a pre-pulse at −100 mV for 1 second prior to the test pulse at −40 mV for 50 ms; in the inactivation protocol, the pre-pulse is at approximately −85 mV for 1 second, which inactivates about 15% of the T-type channels, as shown below. [formula]
Test compounds were dissolved in external solution, 0.1-0.01% DMSO. After ˜10 min rest, they were applied by gravity close to the cell using a WPI microfil tubing. The “non-inactivated” pre-pulse was used to examine the resting block of a compound. The “inactivated” protocol was employed to study voltage-dependent block, but the initial data shown below were mainly obtained using the non-inactivated protocol only. IC50 values are shown for various compounds of the invention in Table 5.

[2] = target: T2, rat α1B+α2b+β1b channels (N-type channels) (Rattus norvegicus, UniProt Q02294); test: Block of α1B N-type channels, whole cell patch recordings (Example 6); assay type: cell-based; settings: HEK 293, 5 mM barium as charge carrier
T2 construct: expressed in transfected cells
T2 sequence (Q02294 whole entry): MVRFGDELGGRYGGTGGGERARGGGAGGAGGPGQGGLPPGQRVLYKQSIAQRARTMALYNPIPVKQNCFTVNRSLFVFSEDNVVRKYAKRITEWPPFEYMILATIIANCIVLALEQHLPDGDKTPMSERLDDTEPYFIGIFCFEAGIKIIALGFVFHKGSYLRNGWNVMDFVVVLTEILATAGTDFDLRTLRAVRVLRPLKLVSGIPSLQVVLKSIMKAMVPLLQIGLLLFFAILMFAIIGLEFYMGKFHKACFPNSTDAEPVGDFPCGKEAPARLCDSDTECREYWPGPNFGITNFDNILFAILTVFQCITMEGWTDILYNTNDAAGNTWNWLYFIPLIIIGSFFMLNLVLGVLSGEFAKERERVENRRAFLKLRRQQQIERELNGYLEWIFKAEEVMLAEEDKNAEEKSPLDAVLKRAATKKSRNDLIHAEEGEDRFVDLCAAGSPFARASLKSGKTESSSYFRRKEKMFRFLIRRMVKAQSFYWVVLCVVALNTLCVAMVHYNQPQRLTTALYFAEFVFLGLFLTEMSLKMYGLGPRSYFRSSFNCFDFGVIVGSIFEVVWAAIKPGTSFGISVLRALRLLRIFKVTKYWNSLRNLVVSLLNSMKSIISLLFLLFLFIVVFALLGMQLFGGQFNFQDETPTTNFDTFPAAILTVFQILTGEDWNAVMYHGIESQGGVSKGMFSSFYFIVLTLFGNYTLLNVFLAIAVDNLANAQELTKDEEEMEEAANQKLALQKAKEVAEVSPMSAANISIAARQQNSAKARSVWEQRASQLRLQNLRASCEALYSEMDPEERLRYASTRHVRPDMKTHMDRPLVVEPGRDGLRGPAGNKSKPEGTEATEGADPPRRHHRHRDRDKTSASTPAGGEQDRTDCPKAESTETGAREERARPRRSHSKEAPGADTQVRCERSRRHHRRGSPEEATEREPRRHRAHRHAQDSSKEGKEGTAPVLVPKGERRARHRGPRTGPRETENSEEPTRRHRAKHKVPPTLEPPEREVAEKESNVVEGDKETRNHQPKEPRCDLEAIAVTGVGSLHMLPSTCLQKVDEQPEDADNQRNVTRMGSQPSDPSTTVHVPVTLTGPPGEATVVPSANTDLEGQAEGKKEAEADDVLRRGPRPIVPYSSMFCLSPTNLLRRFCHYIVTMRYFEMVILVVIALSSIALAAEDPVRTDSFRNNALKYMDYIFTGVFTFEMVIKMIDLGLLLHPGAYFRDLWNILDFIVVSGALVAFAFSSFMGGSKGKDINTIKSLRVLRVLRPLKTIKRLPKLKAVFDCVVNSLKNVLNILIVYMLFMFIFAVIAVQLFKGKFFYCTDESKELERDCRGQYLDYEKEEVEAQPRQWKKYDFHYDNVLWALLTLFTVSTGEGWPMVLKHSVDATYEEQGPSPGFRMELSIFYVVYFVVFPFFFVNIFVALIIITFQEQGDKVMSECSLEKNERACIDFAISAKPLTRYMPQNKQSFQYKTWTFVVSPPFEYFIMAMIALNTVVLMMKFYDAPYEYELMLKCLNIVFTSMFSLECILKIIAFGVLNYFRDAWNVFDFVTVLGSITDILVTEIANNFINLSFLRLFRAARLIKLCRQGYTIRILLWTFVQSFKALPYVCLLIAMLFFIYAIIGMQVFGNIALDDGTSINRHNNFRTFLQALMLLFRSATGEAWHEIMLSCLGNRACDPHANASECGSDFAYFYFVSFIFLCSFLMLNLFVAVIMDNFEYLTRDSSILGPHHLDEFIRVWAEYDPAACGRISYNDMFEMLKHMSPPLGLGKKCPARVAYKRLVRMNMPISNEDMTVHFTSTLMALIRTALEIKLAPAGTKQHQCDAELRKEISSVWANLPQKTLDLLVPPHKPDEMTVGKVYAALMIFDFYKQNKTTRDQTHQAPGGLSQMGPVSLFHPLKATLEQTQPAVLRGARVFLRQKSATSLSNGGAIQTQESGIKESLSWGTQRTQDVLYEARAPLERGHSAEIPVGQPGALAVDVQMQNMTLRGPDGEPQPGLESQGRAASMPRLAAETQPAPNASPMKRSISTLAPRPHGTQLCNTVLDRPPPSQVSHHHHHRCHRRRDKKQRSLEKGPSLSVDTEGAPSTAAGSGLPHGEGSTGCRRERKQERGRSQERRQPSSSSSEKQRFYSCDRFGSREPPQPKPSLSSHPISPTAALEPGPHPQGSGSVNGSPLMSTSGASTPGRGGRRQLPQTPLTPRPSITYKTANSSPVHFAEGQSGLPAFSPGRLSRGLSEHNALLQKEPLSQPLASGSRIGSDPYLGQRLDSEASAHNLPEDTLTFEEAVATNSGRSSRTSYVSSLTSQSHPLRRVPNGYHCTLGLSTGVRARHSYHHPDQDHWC
Method: Antagonist activity was measured using whole cell patch recordings on human embryonic kidney cells either stably or transiently expressing rat α1B+α2b+β1b channels (N-type channels) with 5 mM barium as a charge carrier.
For transient expression, host cells, such as human embryonic kidney cells, HEK 293 (ATCC# CRL 1573) were grown in standard DMEM medium supplemented with 2 mM glutamine and 10% fetal bovine serum. HEK 293 cells were transfected by a standard calcium-phosphate-DNA coprecipitation method using the rat α1B+β1b+α2δ N-type calcium channel subunits in a vertebrate expression vector (for example, see Current Protocols in Molecular Biology).
After an incubation period of from 24 to 72 hrs the culture medium was removed and replaced with external recording solution (see below). Whole cell patch clamp experiments were performed using an Axopatch 200B amplifier (Axon Instruments, Burlingame, Calif.) linked to an IBM compatible personal computer equipped with pCLAMP software. Borosilicate glass patch pipettes (Sutter Instrument Co., Novato, Calif.) were polished (Microforge, Narishige, Japan) to a resistance of about 4 MΩ when filled with cesium methanesulfonate internal solution (composition in MM: 109 CsCH3SO4, 4 MgCl2, 9 EGTA, 9 HEPES, pH 7.2). Cells were bathed in 5 mM Ba^++ (in mM: 5 BaCl2, 1 MgCl2, 10 HEPES, 40 tetraethylammonium chloride, 10 glucose, 87.5 CsCl pH 7.2). […] Drugs were perfused directly into the vicinity of the cells using a microperfusion system.
Normalized dose-response curves were fit (Sigmaplot 4.0, SPSS Inc., Chicago, Ill.) by the Hill equation to determine IC50 values. Steady-state inactivation curves were plotted as the normalized test pulse amplitude following 5 s inactivating prepulses at +10 mV increments. Inactivation curves were fit (Sigmaplot 4.0) with the Boltzman equation, Ipeak (normalized)=1/(1+exp((V-Vh)z/25.6)), where V and Vh are the conditioning and half inactivation potentials, respectively, and z is the slope factor.
Using the procedure set forth above, various compounds of the invention were tested for their ability to block N-type calcium channels.

[3] = system: rat formalin model; test: Formalin-induced pain model; assay type: in vivo; settings: 30 mg/kg IP, 10 minutes prior to formalin, saline control=100%
Method: The effects of intrathecally delivered compounds of the invention on the rat formalin model were measured. The compounds were reconstituted to stock solutions of approximately 10 mg/ml in propylene glycol. Eight Holtsman male rats of 275-375 g size were randomly selected per test compound.
The following study groups were used, with test compounds, vehicle control (propylene glycol) and saline delivered intraperitoneally (IP):
Prior to initiation of drug delivery baseline behavioral and testing data were taken.
On the morning of testing, a small metal band (0.5 g) was loosely placed around the right hind paw. The rat was placed in a cylindrical Plexiglas chamber for adaptation a minimum of 30 minutes. Test compound or vehicle control was administered 10 minutes prior to formalin injection (50 μl of 5% formalin) into the dorsal surface of the right hindpaw of the rat. The animal was then placed into the chamber of the automated formalin apparatus where movement of the formalin injected paw was monitored and the number of paw flinches tallied by minute over the next 60 minutes. (See Malmberg, A. M., and Yaksh, T. L., Anesthesiology (1993) 79:270-281.)
Results are presented as Maximum Possible Effect±SEM, where saline control=100%.

[4] = 100 mV (non-inactivating protocol), read-out: Block of α1G T-type Channels IC50, 100 mV
[5] = 0.067 Hz, read-out: Block of α1B N-type Channels IC50, 0.067 Hz
[6] = 0.2 Hz, read-out: Block of α1B N-type Channels IC50, 0.2 Hz
[7] = 80 mV (inactivation protocol), read-out: Block of α1G T-type Channels IC50, 80 mV
[8] = 100 mV (non-inactivating protocol)

T1 sequence (O43497 whole entry): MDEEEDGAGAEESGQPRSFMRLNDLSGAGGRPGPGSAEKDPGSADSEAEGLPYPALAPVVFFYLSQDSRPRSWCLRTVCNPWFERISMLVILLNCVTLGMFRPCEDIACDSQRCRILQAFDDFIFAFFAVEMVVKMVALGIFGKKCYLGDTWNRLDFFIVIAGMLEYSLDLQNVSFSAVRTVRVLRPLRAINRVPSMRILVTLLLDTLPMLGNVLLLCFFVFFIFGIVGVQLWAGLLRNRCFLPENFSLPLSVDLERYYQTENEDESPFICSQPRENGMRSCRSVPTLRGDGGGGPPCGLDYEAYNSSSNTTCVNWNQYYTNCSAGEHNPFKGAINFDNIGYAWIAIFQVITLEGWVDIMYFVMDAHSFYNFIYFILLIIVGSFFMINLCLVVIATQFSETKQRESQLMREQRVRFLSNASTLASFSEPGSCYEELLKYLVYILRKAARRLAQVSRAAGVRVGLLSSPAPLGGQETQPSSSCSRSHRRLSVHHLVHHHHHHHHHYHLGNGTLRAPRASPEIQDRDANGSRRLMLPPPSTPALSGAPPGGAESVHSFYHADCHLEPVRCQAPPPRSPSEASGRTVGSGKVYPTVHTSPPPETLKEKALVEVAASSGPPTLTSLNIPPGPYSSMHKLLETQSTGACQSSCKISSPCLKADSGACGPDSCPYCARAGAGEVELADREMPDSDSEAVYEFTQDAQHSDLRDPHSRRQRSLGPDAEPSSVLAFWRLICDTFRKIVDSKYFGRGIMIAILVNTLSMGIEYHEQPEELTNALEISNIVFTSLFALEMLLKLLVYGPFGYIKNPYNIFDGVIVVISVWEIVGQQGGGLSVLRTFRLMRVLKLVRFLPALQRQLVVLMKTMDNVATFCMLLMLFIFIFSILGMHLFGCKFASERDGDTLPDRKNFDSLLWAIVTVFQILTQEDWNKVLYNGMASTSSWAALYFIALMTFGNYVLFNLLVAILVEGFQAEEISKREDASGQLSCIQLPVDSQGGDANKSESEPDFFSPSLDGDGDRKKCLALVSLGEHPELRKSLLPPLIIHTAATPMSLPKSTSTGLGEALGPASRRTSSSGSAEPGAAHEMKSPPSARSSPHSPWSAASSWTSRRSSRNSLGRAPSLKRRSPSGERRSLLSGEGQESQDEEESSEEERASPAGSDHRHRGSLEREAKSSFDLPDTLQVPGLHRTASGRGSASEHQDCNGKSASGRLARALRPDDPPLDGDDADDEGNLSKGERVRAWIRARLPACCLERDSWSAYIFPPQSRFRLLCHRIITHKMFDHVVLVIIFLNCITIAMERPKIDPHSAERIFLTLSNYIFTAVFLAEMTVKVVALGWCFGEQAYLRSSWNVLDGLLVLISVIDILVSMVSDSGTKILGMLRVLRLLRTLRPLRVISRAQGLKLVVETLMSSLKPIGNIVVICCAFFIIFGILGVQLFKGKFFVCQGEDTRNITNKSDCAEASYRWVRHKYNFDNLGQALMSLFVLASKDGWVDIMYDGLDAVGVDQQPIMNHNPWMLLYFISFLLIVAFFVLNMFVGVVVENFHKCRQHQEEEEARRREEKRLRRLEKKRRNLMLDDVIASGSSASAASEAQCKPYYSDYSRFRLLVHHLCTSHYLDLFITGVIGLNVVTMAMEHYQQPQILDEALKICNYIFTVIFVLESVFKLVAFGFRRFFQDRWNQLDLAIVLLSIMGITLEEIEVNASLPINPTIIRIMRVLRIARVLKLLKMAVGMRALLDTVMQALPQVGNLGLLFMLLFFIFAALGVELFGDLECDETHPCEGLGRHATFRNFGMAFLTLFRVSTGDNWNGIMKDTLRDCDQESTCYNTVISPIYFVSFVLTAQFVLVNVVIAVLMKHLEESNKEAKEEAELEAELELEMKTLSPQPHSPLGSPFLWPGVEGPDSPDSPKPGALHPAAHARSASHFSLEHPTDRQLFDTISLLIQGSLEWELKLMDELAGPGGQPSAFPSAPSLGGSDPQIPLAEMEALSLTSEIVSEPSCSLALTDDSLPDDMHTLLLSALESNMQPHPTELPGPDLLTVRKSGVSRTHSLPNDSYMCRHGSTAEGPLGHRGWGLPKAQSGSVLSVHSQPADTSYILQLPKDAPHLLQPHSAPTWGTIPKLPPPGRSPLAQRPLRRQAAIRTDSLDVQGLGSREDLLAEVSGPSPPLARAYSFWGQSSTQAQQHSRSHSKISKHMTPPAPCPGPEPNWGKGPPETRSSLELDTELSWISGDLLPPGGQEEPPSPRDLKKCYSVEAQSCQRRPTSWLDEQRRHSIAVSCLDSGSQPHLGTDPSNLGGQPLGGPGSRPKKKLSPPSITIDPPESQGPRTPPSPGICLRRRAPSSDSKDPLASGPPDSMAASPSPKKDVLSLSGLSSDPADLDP

Compound | IC50 [1, 4] [nM] | IC50 [2, 5] [nM] | IC50 [2, 6] [nM] | other results
O=C(CC(c1ccccc1)c1ccccc1)N1CCN(C2c3ccccc3S(=O)(=O)c3ccccc32)CC1 [Compound P27] |  | 854 | 552 | 
COc1cc(C(c2ccccc2)N2CCN(C(=O)CC(c3ccccc3)c3ccccc3)CC2)cc(OC)c1OC (centres unmarked) [Compound P25] |  | 1090 | 513 | 
COc1ccc(C(c2ccc(OC)cc2)N2CCN(C(=O)CC(c3ccccc3)c3ccccc3)CC2)cc1 [Compound P19] | 745 | 360 | 249 | 
O=C(CN(c1ccccc1)c1ccccc1)N1CCN(C(c2ccccc2)c2cccc(Cl)c2Cl)CC1 (centres unmarked) [Compound P50] |  |  |  | Maximum Possible Effect ± SEM, Phase I [3]: 60 ± 7%; Maximum Possible Effect ± SEM, Phase II [3]: 63 ± 10%; Maximum Possible Effect ± SEM, Phase IIA [3]: 63 ± 13%
Cc1ccc(C(c2ccccc2)N2CCN(C(=O)CC(c3ccccc3)c3ccccc3)CC2)cc1 (centres unmarked) [Compound P23] |  | 490 | 310 | 
O=C(CC(c1ccccc1)c1ccccc1)N1CCN(C(c2ccccc2)c2ccc(F)cc2)CC1 (centres unmarked) [Compound P24] |  | 600 | 380 | 
O=C(CC(c1ccccc1)c1ccccc1)N1CCN(C(c2ccccc2)c2ccc(Cl)cc2Cl)CC1 (centres unmarked) [P29 (HC1)] |  | > 1000 | > 1000 | 
O=C(CC(c1ccccc1)c1ccccc1)N1CCN(C(c2ccccc2)c2cccc(Cl)c2Cl)CC1 (centres unmarked) [Compound P15] | 63 | 348 | 217 | 
O=C(CC(c1ccccc1)c1ccccc1)N1CCN(C(c2ccccc2)c2ccc(Cl)c(Cl)c2)CC1 (centres unmarked) [Compound P30] | > 1000 | > 1000 | > 1000 | 
CC(C)(C)c1ccc(C(c2ccccc2)N2CCN(C(=O)CC(c3ccccc3)c3ccccc3)CC2)cc1 (centres unmarked) [Compound P11] |  | 370 | 190 | 
COc1cc(C(c2ccccc2)N2CCN(C(=O)CC(c3ccccc3)c3ccccc3)CC2)cc(OC)c1O (centres unmarked) [Compound P21] |  | 437 | 252 | 
O=C(CC(c1ccccc1)c1ccccc1)N1CCN(C(c2ccccc2)c2cc(C(F)(F)F)cc(C(F)(F)F)c2)CC1 (centres unmarked) [Compound P10] |  | 550 | 450 | 
O=C(CC(c1ccccc1)c1ccccc1)N1CCN(C(c2ccccc2)c2ccc(O)cc2)CC1 (centres unmarked) [Compound P49] | 2700 | 340 | 320 | IC50 [1, 7]: 835 nM
O=C(CC(c1ccccc1)c1ccccc1)N1CCN(C2c3ccccc3-c3ccccc32)CC1 [Compound P31] | 371 |  |  | 
O=C(CC(c1ccccc1)c1ccccc1)N1CCN(C2c3ccccc3CCc3ccccc32)CC1 [P32 (HC1)] |  | > 1000 | 830 | 
O=C(CC(c1ccccc1)c1ccccc1)N1CCN(C(c2ccccc2)c2ccccc2)C(=O)C1 [Compound P34, 1-Benzhydryl-4-(3,3-diphenyl-propionyl)-piperazin-2-one] |  | 737 | 680 | 
O=C(O)C1CN(C(c2ccccc2)c2ccccc2)CCN1C(=O)CC(c1ccccc1)c1ccccc1 (centres unmarked) [Compound P42] |  | 1900 | 1490 | IC50 [1, 7]: 1840 nM; Block of α1G T-type Channels IC50, 100 mV [1, 8]: no effect
COc1ccc(C(c2ccc3c(c2)OCO3)N2CCN(C(=O)CC(c3ccccc3)c3ccccc3)CC2)cc1 (centres unmarked) [Compound P26] |  | 710 | 533 | 
O=C(CC(c1ccccc1)c1ccccc1)N1CCN(C(c2ccccc2)c2ccccc2C(F)(F)F)CC1 (centres unmarked) [Compound P22] |  | 538 | 301 | 
O=C(CC1c2ccccc2-c2ccccc21)N1CCN(C(c2ccccc2)c2ccccc2)CC1 [Compound P33] | 404 |  |  | 
CCOC(=O)C1CN(C(c2ccccc2)c2ccccc2)CCN1C(=O)CC(c1ccccc1)c1ccccc1 (centres unmarked) [Compound P41] | 1010 | 420 | 390 | IC50 [1, 7]: 363 nM

More lines, main results first:

IC50 [1, 4] [nM] | IC50 [2, 5] [nM] | IC50 [2, 6] [nM] | Compound | other results
> 1000 | 230 | 170 | O=C(CC(c1ccccc1)c1ccccc1)N1CCN(C(c2ccccc2)c2cc(Cl)cc(Cl)c2)CC1 (centres unmarked) [Compound P9] | 
 | 320 | 210 | COc1cc(OC)cc(C(c2ccccc2)N2CCN(C(=O)CC(c3ccccc3)c3ccccc3)CC2)c1 (centres unmarked) [Compound P14] | 
2200 | 240 | 190 | CCOC(=O)C1CN(C(c2ccccc2)c2ccccc2)CCN1C(=O)CC1c2ccccc2-c2ccccc21 (centres unmarked) [Compound P39] | IC50 [1, 7]: 768 nM
10000 | 230 | 220 | N#CC1CN(C(c2ccccc2)c2ccccc2)CCN1C(=O)CC(c1ccccc1)c1ccccc1 (centres unmarked) [Compound P45] | IC50 [1, 7]: 833 nM
699 | 200 | 160 | O=C(O)C1CN(C(c2ccccc2)c2ccccc2)CCN1C(=O)CC1c2ccccc2-c2ccccc21 (centres unmarked) [Compound P38] | IC50 [1, 7]: 181 nM
 | 320 | 250 | COc1ccc(C(c2ccccc2)N2CCN(C(=O)CC(c3ccccc3)c3ccccc3)CC2)cc1 (centres unmarked) [Compound P20] | 
2380 | 167 | 83 | CCOC(=O)C1CN(C(c2ccccc2)c2ccccc2)CCN1C(=O)CC(c1ccccc1)c1ccccc1 (centres unmarked) [Compound P43] | IC50 [1, 7]: 279 nM
 | 340 | 190 | O=C(CC(c1ccccc1)c1ccccc1)N1CCN(C(c2ccccc2)c2ccccc2OC(F)F)CC1 (centres unmarked) [Compound P12] | 
< 1000 | 300 | 210 | O=C(CC(c1ccccc1)c1ccccc1)N1CCN(C(c2ccccc2)c2c(Cl)cccc2Cl)CC1 (centres unmarked) [Compound P13] | 
 | 300 | 190 | O=C(CC(c1ccccc1)c1ccccc1)N1CCN(C(c2ccccc2)c2cc(C(F)(F)F)cc(C(F)(F)F)c2)CC1 (centres unmarked) [P10 (HC1)] | 
991 | 162 | 24 | CC1CN(C(c2ccccc2)c2ccccc2)CCN1C(=O)CC(c1ccccc1)c1ccccc1 (centres unmarked) [Compound P37] | IC50 [1, 7]: 474 nM
 | 286 | 233 | O=C(CC(c1ccccc1)c1ccccc1)N1CCN(C(c2ccccc2)c2ccc(OCc3ccccc3)cc2)CC1 (centres unmarked) [Compound P17] | Block of α1G T-type Channels IC50, 100 mV [1, 8]: No effect
 | 290 | 220 | O=C(CC(c1ccccc1)c1ccccc1)N1CCN(C2c3ccccc3Oc3ccccc32)CC1 [Compound P16] | 
